Columns and labels:
[1] = molecular target: GDP-bound KRAS wild-type protein (Homo sapiens, UniProt P01116); experiment: Binding to KRAS by surface plasmon resonance (SPR), Single Cycle Kinetics; settings: SPR, Single Cycle Kinetics, 1:1 binding model; GDP-bound KRAS wild-type protein; read-out: KRAS KD
[2] = molecular target: GDP-bound NRAS wild-type protein (Homo sapiens, UniProt P01111); experiment: Binding to NRAS by surface plasmon resonance (SPR), Single Cycle Kinetics; settings: SPR; GDP-bound NRAS wild-type protein vs GDP-bound KRAS wild-type protein; KD ratio class
Sequence of GDP-bound NRAS wild-type protein (P01111 whole entry): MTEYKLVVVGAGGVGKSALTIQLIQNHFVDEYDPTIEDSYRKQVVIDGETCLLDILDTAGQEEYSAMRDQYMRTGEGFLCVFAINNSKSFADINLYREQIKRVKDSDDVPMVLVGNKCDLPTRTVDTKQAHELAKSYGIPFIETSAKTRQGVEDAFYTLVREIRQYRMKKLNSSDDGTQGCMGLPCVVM

[3] = molecular target: GDP-bound HRAS wild-type protein (Homo sapiens, UniProt P01112); experiment: Binding to HRAS by surface plasmon resonance (SPR), Single Cycle Kinetics; settings: SPR; GDP-bound HRAS wild-type protein vs GDP-bound KRAS wild-type protein; KD ratio class
Sequence of GDP-bound HRAS wild-type protein (P01112 whole entry): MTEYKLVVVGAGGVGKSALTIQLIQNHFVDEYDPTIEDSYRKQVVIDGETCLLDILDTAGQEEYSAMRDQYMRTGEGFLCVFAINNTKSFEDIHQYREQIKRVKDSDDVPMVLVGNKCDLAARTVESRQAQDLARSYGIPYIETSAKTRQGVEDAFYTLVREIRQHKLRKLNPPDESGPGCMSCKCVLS

[4] = test system: human lung cancer strain NCI-H441;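 also: cell proliferation inhibition after four days measured by CellTiter-Glo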

Sequence of GDP-bound KRAS wild-type protein (P01116 whole entry): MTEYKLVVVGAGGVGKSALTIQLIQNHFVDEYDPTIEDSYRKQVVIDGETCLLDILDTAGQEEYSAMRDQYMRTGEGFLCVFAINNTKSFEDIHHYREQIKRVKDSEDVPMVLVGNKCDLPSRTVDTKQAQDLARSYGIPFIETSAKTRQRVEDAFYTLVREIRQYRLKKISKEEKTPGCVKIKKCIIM

Q: What does the source list for `CCO[C@@H]1C[C@H]2C(=O)NC3(CCC3)C(=O)N(C)[C@@H](C3CCCC3)C(=O)N(C)[C@H](C(=O)N3CCCC3)CC(=O)N(C)[C@@H](CC(F)F)C(=O)N[C@@H]([C@@H](C)CC)C(=O)N(C)CC(=O)N(C)[C@H]3C/C=C\CCN(C3=O)[C@@H](Cc3ccc(C(F)(F)F)cc3)C(=O)N(C)CC(=O)N[C@@H](CCc3cc(F)c(C(F)(F)F)c(F)c3)C(=O)N2C1` [PP1298]?
A: Kd [1]: 0.13 nM; NRAS/KRAS (ratio of KD value for NRAS to KD value for KRAS) [2]: AA (a compound having 20 or more is denoted as AA); HRAS/KRAS (ratio of KD value for HRAS to KD value for KRAS) [3]: A (a compound having 10 or more and less than 20 is denoted as A); IC50 [4]: 11.4 nM

Q: Which results are given for `CCC[C@H]1C(=O)N[C@@H]([C@@H](C)CC)C(=O)N(C)CC(=O)N(C)[C@H]2C/C=C\CCN(C2=O)[C@@H](Cc2ccc(C(F)(F)F)cc2)C(=O)N(C)CC(=O)N[C@@H](CCc2cc(F)c(C(F)(F)F)c(F)c2)C(=O)N2C[C@H](OCC)C[C@H]2C(=O)NC2(CCC2)C(=O)N(C)[C@@H](C2CCCC2)C(=O)N(C)[C@H](C(=O)N2CCCC2)CC(=O)N1C` [PP1299, (2S,8S,12R,14S,20S,23S,27S,30S,36S,38Z)-20-cyclopentyl-8-[2-[3,5-difluoro-4-(trifluoromethyl)phenyl]ethyl]-12-ethoxy-4,19,22,26,32,35-hexamethyl-30-[(1S)-1-methylpropyl]-27-propyl-23-(pyrrolidine-1-carbonyl)-2-[[4-(trifluoromethyl)phenyl]methyl]spiro[1,4,7,10,16,19,22,26,29,32,35-undecazatricyclo[34.5.1.0^10,14]dotetracont-38-ene-17,1′-cyclobutane]-3,6,9,15,18,21,25,28,31,34,42-undecone]?
A: Kd [1]: 0.14 nM; NRAS/KRAS (ratio of KD value for NRAS to KD value for KRAS) [2]: A (a compound having 10 or more and less than 20 is denoted as A); HRAS/KRAS (ratio of KD value for HRAS to KD value for KRAS) [3]: A (a compound having 10 or more and less than 20 is denoted as A); IC50 [4]: 11 nM

Q: Which results are given for `CCC[C@H]1C(=O)N[C@@H]([C@@H](C)CC)C(=O)N(C)CC(=O)N(C)[C@H]2C/C=C\CCN(C2=O)[C@@H](Cc2ccc(C(F)(F)F)cc2)C(=O)N(C)CC(=O)N[C@@H](CCc2cc(F)c(C(F)(F)F)c(F)c2)C(=O)N2C[C@H](OCC)C[C@H]2C(=O)NC2(CCC2)C(=O)N(C)[C@@H](C2CCCC2)C(=O)N(C)[C@H](C(=O)N2CC3CCC(C2)O3)CC(=O)N1C` [PP1315]?
A: Kd [1]: 0.34 nM; NRAS/KRAS (ratio of KD value for NRAS to KD value for KRAS) [2]: AA (a compound having 20 or more is denoted as AA); HRAS/KRAS (ratio of KD value for HRAS to KD value for KRAS) [3]: A (a compound having 10 or more and less than 20 is denoted as A); IC50 [4]: 34.5 nM

Q: For `CCO[C@@H]1C[C@H]2C(=O)NC3(CCC3)C(=O)N(C)[C@@H](C3CCCC3)C(=O)N(C)[C@H](C(=O)N(C)CCOC)CC(=O)N(C)[C@@H](CC3CC3)C(=O)N[C@@H]([C@@H](C)CC)C(=O)N(C)CC(=O)N(C)[C@H]3C/C=C\CCN(C3=O)[C@@H](Cc3ccc(C(F)(F)F)cc3)C(=O)N(C)CC(=O)N[C@@H](CCc3ccc(Cl)c(Cl)c3)C(=O)N2C1` [PP1329], which Kd [1] is on record?
A: 0.24 nM

Q: What about the “NRAS/KRAS (ratio of KD value for NRAS to KD value for KRAS)” value [2] of the same compound?
A: AA (a compound having 20 or more is denoted as AA)

Q: What about the “HRAS/KRAS (ratio of KD value for HRAS to KD value for KRAS)” value [3] of the same compound?
A: A (a compound having 10 or more and less than 20 is denoted as A)

Q: And the IC50 [4]?
A: 34.5 nM

Q: Which results are given for `CC[C@H](C)[C@@H]1NC(=O)[C@H](CC)N(C)C(=O)C[C@@H](C(=O)N(C)C)N(C)C(=O)[C@H](C2CCCC2)N(C)C(=O)C2(CCCC2)NC(=O)[C@@H]2CCCN2C(=O)[C@H](CCc2ccc(C(F)(F)F)c(Cl)c2)NC(=O)CN(C)C(=O)[C@H](Cc2ccc(C(F)(F)F)cc2)N2C[C@H](C)CC[C@@H](C2=O)N(C)C(=O)CN(C)C1=O` [PP1336]?
A: Kd [1]: 0.074 nM; NRAS/KRAS (ratio of KD value for NRAS to KD value for KRAS) [2]: B (a compound having 3 or more and less than 10 is denoted as B); HRAS/KRAS (ratio of KD value for HRAS to KD value for KRAS) [3]: B (a compound having 3 or more and less than 10 is denoted as B); IC50 [4]: 10.8 nM

Q: `CC[C@H](C)[C@@H]1NC(=O)[C@H](CC)N(C)C(=O)C[C@@H](C(=O)N2CCOCC2)N(C)C(=O)[C@H](C2CCCC2)N(C)C(=O)C2(CCCC2)NC(=O)[C@@H]2CCCN2C(=O)[C@H](CCc2ccc(C(F)(F)F)c(Cl)c2)NC(=O)CN(C)C(=O)[C@H](Cc2ccc(C(F)(F)F)cc2)N2C[C@H](C)CC[C@@H](C2=O)N(C)C(=O)CN(C)C1=O` [PP1337] was tested. Which Kd [1] did it give?
A: 0.17 nM

Q: What about the “NRAS/KRAS (ratio of KD value for NRAS to KD value for KRAS)” value [2] of the same compound?
A: B (a compound having 3 or more and less than 10 is denoted as B)

Q: And the “HRAS/KRAS (ratio of KD value for HRAS to KD value for KRAS)” value [3]?
A: B (a compound having 3 or more and less than 10 is denoted as B)

Q: What about the IC50 [4] of the same compound?
A: 29.8 nM

Q: What does the source list for `CC[C@H](C)[C@@H]1NC(=O)[C@H](CC)N(C)C(=O)C[C@@H](C(=O)N2CCOCC2)N(C)C(=O)[C@H](C2CCCC2)N(C)C(=O)C2(CCC2)NC(=O)[C@@H]2CCCN2C(=O)[C@H](CCc2ccc(C(F)(F)F)c(Cl)c2)NC(=O)CN(C)C(=O)[C@H](Cc2ccc(C(F)(F)F)cc2)N2C[C@H](C)CC[C@@H](C2=O)N(C)C(=O)CN(C)C1=O` [PP1338]?
A: Kd [1]: 0.14 nM; NRAS/KRAS (ratio of KD value for NRAS to KD value for KRAS) [2]: B (a compound having 3 or more and less than 10 is denoted as B); HRAS/KRAS (ratio of KD value for HRAS to KD value for KRAS) [3]: B (a compound having 3 or more and less than 10 is denoted as B); IC50 [4]: 35 nM

Q: How did the Kd [1] turn out when `C#CC[C@H]1C(=O)N[C@@H]([C@@H](C)CC)C(=O)N(C)CC(=O)N(C)[C@H]2CC[C@@H](C)CN(C2=O)[C@@H](Cc2ccc(C(F)(F)F)cc2)C(=O)N(C)CC(=O)N[C@@H](CCc2ccc(C(F)(F)F)c(Cl)c2)C(=O)N2CCC[C@H]2C(=O)NC2(CCCC2)C(=O)N(C)[C@@H](C2CCCC2)C(=O)N(C)[C@H](C(=O)N(C)C)CC(=O)N1C` [PP1340] was run?
A: 0.081 nM

Q: And the “NRAS/KRAS (ratio of KD value for NRAS to KD value for KRAS)” value [2]?
A: B (a compound having 3 or more and less than 10 is denoted as B)

Q: What about the “HRAS/KRAS (ratio of KD value for HRAS to KD value for KRAS)” value [3] of the same compound?
A: B (a compound having 3 or more and less than 10 is denoted as B)

Q: What about the IC50 [4] of the same compound?
A: 10.9 nM

Q: `CC[C@H](C)[C@@H]1NC(=O)[C@H](CC2CC2)N(C)C(=O)C[C@@H](C(=O)N2CCOCC2)N(C)C(=O)[C@H](C2CCCC2)N(C)C(=O)C2(CCC2)NC(=O)[C@@H]2CCCN2C(=O)[C@H](CCc2ccc(C(F)(F)F)c(Cl)c2)NC(=O)CN(C)C(=O)[C@H](Cc2ccc(C(F)(F)F)cc2)N2C[C@H](C)CC[C@@H](C2=O)N(C)C(=O)[C@@H]2CCN2C1=O` [PP1341] was tested. Which Kd [1] did it give?
A: 0.81 nM

Q: And the “NRAS/KRAS (ratio of KD value for NRAS to KD value for KRAS)” value [2]?
A: A (a compound having 10 or more and less than 20 is denoted as A)

Q: What about the “HRAS/KRAS (ratio of KD value for HRAS to KD value for KRAS)” value [3] of the same compound?
A: B (a compound having 3 or more and less than 10 is denoted as B)

Q: And the IC50 [4]?
A: 46.3 nM

Q: For `CC[C@H](C)[C@@H]1NC(=O)[C@H](CC2CCC2)N(C)C(=O)C[C@@H](C(=O)N(C)C)N(C)C(=O)[C@H](C2CCCC2)N(C)C(=O)C2(CCCC2)NC(=O)[C@@H]2CCCN2C(=O)[C@H](CCc2ccc(C(F)(F)F)c(Cl)c2)NC(=O)CN(C)C(=O)[C@H](Cc2ccc(C(F)(F)F)cc2)N2C[C@H](C)CC[C@@H](C2=O)N(C)C(=O)CN(C)C1=O` [PP1342], which Kd [1] is on record?
A: 0.091 nM

Q: What about the “NRAS/KRAS (ratio of KD value for NRAS to KD value for KRAS)” value [2] of the same compound?
A: B (a compound having 3 or more and less than 10 is denoted as B)

Q: What about the “HRAS/KRAS (ratio of KD value for HRAS to KD value for KRAS)” value [3] of the same compound?
A: B (a compound having 3 or more and less than 10 is denoted as B)

Q: What about the IC50 [4] of the same compound?
A: 5 nM

Reference: patent US20240158446A1, “CYCLIC COMPOUND HAVING SELECTIVE INHIBITORY ACTION ON KRAS OVER HRAS AND NRAS” (CHUGAI SEIYAKU KABUSHIKI KAISHA, priority 2021, published 2024)
